Earlier results as cited in EP0163237A2, “Di- and tri-peptidal renin inhibitors” (Merck & Co., Inc., priority 1984, dated 1985).
Where a SMILES comes first, the peptide text is derived from it. [ ]: non-standard residue; d: D form. The star is where a group is joined. Sta = CC(C)C[C@H](N)[C@@H](O)CC(=O)O; Isovaleryl = CC(C)CC(=O)*

Tested on: hog renin
Details: after the injection of hog renin into nephrectomized rats

Question: Which “blood pressure in vivo” value does the source give for `CC(C)CC(=O)N[C@H](C(=O)N[C@H](C(=O)N[C@@H](CC(C)C)[C@@H](O)CC(=O)N[C@@H](C)C(=O)N[C@@H](CC(C)C)[C@@H](O)CC(=O)O)C(C)C)C(C)C` [pepstatin] (Isovaleryl-VV[Sta]A[Sta]-OH) here?
Answer: reduce blood pressure
